Where two headings read alike, the source gives them in different places.
Columns and labels:
[1] = molecular target: 17β-HSD1 (Homo sapiens (Human), UniProt P14061); experiment: 17β-HSD1 test assay (recombinant protein from Sf9 insect cells, 3H-estrone/NADPH); assay type: biochemical; settings: for inhibition at 1 µM: read-out: HSD 1 μM (% inhibition of HSD1); for inhibition at 0.1 µM: read-out: HSD1 100 nM (% inhibition)
Procedure: Recombinant protein obtained from Sf9 insect cells (0.1 μg/ml) is incubated with 20 mM KH2PO4, pH 7.4, 30 nM ^3H-estrone and 1 mM NADPH for 30 min at RT in the presence of the potential inhibitor in a concentration of 1 μM or 100 nM. The stock solutions of the compounds are prepared in DMSO (dimethylsulfoxide) so that the final concentration of DMSO in the sample is 1%. After the prescribed incubation time, the reaction is quenched by adding trichloroacetic acid (10% final concentration). The samples are centrifuged in microtitration plates at 400 rpm for 10 min, and the supernatants are charged on a reversed-phase HPLC equipped with a Waters Symmetrie C18 column and Waters Sentry Guard column. The isocratic HPLC run is performed at RT with a flow rate of 1 ml/min and acetonitrile/water 48:52 as the eluent. The radioactivity was measured by means of a Packard Flow Scintillation Analyzer. […]

[2] = molecular target: 17β-HSD2 (Homo sapiens (Human), UniProt P37059); experiment: 17β-HSD2 test assay (recombinant protein from Sf9 insect cells, 3H-estradiol/NAD+); assay type: biochemical; settings: for inhibition at 0.1 µM: read-out: HSD2 100 nM (% inhibition); for inhibition at 1 µM: read-out: HSD2 1 μM (% inhibition)
Procedure: Recombinant protein obtained from Sf9 insect cells (0.1 μg/ml) is incubated with 20 mM KH2PO4, pH 7.4, 30 nM ^3H-estradiol and 1 mM NAD+ for 30 min at RT in the presence of the potential inhibitor in a concentration of 1 μM or 100 nM. The stock solutions of the compounds are prepared in DMSO so that the final concentration of DMSO in the sample is 1%. After the prescribed incubation time, the reaction is quenched by adding trichloroacetic acid (10% final concentration). The samples are centrifuged in microtitration plates at 400 rpm for 10 min, and the supernatants are charged on a reversed-phase HPLC equipped with a Waters Symmetrie C18 column and
Waters Sentry Guard column. The isocratic HPLC run is performed at RT with a flow rate of 1 ml/min and acetonitrile/water 48:52 as the eluent. The radioactivity was measured by means of a Packard Flow Scintillation Analyzer. The percent inhibition was calculated by means of the formulas stated above.

[3] = molecular target: estrogen receptor α (Homo sapiens (Human), UniProt P03372); experiment: Estrogen receptor binding assay, ERα
[4] = molecular target: estrogen receptor β (Homo sapiens (Human), UniProt Q92731); experiment: Estrogen receptor binding assay, ERβ
[5] = In vivo pharmacokinetics (rat), cassette dosing method; settings: cassette dosing perorally 10 mg/kg, male Wistar rats; for AUC(0-t) / Tmax / AUC(0-inf): rat, plasma, po; for AUC(0-inf): extrapolated to ∞
Description: Labrasol/water 1/1). The plasma profiles were established by means of LC-MS/MS.

[6] = CaCo-2 assay (transport experiments); assay type: in vitro ADME; settings: human, Caco-2; initial donor concentration 50 μM
Procedure: (§1) Four reference compounds (atenolol, testosterone, ketoprofene and erythromycin) were employed in each assay for evaluating the transport properties of the CaCo-2 cells. The initial concentration of the compounds in the donor compartment was 50 μM (in buffer with 1% ethanol or DMSO). […] For glycoprotein P (P-gp) studies, bidirectional experiments were performed. The absorptive and secretory permeabilities (Papp(a-b) and Papp(b-a)) were determined. Thus, erythromycin was used as a substrate, and verapamil was used as an inhibitor of P-gp. Each experiment was performed in triplicate. The integrity of the monolayer was determined by means of TEER (transepithelial electric resistance) and the permeability for each assay was determined using Lucifer Yellow. All samples of the CaCo-2 transport experiments were analyzed by means of LC/MS/MS after dilution with buffer (1:1 with 2% acetic acid).

[7] = system: CaCo-2 cells; experiment: CaCo-2 assay (transport experiments); assay type: in vitro ADME; settings: for Permeability: class in words; for final basolateral concentration [μM ± SD]: initial donor concentration 50 μM
Procedure: as §1

[8] = molecular target: CYP3A4 (Homo sapiens (Human), UniProt P08684); experiment: P450 inhibition assay CYP3A4; assay type: biochemical; settings: read-out: IC50 (mean ± SD) [μM] CYP3A4
[9] = molecular target: CYP1A2 (Homo sapiens (Human), UniProt P05177); experiment: P450 inhibition assay CYP1A2
[10] = molecular target: CYP2C9 (Homo sapiens (Human), UniProt P11712); experiment: P450 inhibition assay CYP2C9
[11] = molecular target: CYP2C19 (Homo sapiens (Human), UniProt P33261); experiment: P450 inhibition assay CYP2C19
[12] = molecular target: CYP2D6 (Homo sapiens (Human), UniProt P10635); experiment: P450 inhibition assay CYP2D6; assay type: biochemical; settings: read-out: IC50 (mean ± SD) [μM] CYP2D6
[13] = Test for metabolic stability, liver microsomes; settings: for Slope (−k): rat liver microsomes
Procedure: The assay was performed with liver microsomes of rats.
The incubation solution (180 μl) consists of 90 μl of a microsomal suspension of 0.33 mg/ml protein in 100 mM phosphate buffer, pH 7.4, with 90 μl NADP-regenerating system (NADP: 1 mM, glucose-6-phosphate 5 mM, glucose-6-phosphate dehydrogenase: 5 U/ml, MgCl2 5 mM).
The reaction is started by adding 20 μl of the compound to be tested in 20% ACN to the microsome/buffer mixture preincubated at 37° C. After 0, 15, 30 and 60 minutes, 200 μl of sample solution is withdrawn and subjected to ACN precipitation. The isolation of the compounds is effected by adding 200 μl ACN that contains the internal standard (1 μM) to 200 μl of sample solution and calibration standard. After shaking for 10 s and centrifugation at 4000 g, an aliquot of the supernatant is subjected to LC-MS/MS. Two controls are included, namely a positive control with 7-ethoxycoumarin as a reference to verify the microsomal enzyme activity, and a negative control in which microsomes are used that were heated for 25 minutes without a regenerating system, in order to ensure that the loss of substance is actually due to metabolization.
The amount of compound in a sample is expressed as the percent fraction of the compound remaining as compared to time t=0 (100%). The percent fraction is plotted versus time.

[14] = molecular target: CYP2B6 (Homo sapiens (Human), UniProt P20813); experiment: P450 inhibition assay CYP2B6
[15] = In vivo pharmacokinetics (rat), single oral administration; settings: single oral administration 50 mg/kg, male Wistar rats
[16] = relative binding affinity (estradiol: 100%)

Chain of estrogen receptor β (Q92731 whole entry): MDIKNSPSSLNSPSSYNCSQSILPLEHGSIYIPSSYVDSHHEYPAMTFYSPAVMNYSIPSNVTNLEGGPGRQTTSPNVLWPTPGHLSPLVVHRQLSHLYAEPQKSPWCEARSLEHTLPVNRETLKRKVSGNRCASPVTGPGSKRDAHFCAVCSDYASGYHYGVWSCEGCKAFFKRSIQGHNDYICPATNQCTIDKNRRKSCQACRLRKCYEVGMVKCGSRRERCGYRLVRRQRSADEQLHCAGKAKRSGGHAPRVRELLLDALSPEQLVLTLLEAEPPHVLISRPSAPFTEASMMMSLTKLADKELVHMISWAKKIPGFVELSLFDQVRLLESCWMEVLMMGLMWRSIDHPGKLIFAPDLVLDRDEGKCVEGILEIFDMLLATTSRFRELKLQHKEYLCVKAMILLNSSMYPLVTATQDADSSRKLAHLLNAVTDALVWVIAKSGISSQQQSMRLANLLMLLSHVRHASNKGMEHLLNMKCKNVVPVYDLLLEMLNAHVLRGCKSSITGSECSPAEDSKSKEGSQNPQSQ
Chain of 17β-HSD1 (P14061 whole entry): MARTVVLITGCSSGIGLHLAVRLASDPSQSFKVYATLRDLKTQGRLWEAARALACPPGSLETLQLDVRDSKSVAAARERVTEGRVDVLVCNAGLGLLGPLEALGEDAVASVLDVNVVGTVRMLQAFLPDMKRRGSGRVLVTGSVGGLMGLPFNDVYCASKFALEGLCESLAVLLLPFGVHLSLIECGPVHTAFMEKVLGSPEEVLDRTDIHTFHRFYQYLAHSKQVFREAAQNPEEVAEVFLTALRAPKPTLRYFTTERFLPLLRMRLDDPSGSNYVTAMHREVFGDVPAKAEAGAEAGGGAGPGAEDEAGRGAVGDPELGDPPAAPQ
Chain of estrogen receptor α (P03372 whole entry): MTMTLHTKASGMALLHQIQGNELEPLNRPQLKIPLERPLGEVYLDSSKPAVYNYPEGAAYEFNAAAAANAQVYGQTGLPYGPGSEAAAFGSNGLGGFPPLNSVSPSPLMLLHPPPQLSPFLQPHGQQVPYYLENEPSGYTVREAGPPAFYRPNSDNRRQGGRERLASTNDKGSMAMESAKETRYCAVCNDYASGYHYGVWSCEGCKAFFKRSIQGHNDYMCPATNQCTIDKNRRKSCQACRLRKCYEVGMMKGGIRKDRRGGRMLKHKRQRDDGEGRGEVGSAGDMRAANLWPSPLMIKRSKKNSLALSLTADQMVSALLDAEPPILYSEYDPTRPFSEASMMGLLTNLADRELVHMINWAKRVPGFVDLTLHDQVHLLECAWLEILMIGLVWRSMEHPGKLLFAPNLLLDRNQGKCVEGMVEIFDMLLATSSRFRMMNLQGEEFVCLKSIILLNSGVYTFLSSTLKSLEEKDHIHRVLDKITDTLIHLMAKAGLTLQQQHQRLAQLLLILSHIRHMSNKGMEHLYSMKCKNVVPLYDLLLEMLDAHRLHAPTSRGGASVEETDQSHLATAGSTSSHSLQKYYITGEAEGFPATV
Chain of 17β-HSD2 (P37059 whole entry): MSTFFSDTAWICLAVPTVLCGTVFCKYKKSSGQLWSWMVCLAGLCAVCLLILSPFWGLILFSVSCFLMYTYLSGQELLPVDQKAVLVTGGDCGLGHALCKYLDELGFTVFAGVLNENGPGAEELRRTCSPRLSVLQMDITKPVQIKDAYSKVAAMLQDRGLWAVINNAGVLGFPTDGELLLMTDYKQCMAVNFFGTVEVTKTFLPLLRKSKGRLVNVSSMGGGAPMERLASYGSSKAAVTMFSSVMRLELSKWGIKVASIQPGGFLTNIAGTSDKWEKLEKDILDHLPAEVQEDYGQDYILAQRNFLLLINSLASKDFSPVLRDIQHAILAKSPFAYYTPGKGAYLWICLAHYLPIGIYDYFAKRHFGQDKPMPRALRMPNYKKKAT
Chain of CYP3A4 (P08684 whole entry): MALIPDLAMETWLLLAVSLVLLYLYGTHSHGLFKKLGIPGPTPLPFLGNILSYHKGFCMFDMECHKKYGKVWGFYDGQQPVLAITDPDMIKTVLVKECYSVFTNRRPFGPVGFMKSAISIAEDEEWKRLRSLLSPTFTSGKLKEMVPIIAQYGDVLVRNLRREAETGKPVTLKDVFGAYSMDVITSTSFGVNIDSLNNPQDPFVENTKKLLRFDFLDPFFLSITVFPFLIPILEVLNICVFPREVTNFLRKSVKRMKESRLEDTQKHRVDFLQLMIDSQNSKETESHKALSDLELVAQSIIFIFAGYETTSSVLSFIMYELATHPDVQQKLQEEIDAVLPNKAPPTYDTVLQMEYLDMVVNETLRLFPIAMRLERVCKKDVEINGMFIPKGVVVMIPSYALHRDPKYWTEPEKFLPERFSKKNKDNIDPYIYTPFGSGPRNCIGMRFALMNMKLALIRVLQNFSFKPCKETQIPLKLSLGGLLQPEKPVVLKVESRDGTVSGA
Chain of CYP2D6 (P10635 whole entry): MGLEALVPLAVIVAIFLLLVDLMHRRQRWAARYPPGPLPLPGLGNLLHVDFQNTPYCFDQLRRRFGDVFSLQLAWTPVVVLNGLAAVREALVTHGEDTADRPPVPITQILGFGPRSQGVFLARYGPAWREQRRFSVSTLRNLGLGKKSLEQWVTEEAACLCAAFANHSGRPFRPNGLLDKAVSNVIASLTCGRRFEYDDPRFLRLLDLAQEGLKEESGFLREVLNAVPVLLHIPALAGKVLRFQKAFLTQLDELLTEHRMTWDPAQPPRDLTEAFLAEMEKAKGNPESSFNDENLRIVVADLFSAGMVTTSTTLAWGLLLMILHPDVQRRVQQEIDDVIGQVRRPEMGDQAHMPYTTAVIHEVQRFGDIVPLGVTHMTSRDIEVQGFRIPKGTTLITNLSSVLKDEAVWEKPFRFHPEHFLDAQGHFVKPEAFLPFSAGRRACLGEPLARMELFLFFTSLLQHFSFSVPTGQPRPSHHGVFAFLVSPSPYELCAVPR
Chain of CYP2B6 (P20813 whole entry): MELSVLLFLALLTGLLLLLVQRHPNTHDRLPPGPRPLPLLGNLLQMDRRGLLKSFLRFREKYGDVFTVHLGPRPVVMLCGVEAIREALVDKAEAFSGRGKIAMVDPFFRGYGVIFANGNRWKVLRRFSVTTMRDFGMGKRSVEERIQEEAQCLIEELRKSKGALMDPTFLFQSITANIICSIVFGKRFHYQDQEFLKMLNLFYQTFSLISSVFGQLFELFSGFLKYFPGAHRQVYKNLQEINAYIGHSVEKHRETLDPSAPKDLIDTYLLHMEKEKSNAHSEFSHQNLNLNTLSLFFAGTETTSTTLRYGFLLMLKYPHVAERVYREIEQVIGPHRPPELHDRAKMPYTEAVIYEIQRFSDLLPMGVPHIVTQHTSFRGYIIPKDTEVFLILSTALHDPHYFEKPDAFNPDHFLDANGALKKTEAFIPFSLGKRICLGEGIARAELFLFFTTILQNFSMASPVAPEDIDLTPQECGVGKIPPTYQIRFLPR
Chain of CYP1A2 (P05177 whole entry): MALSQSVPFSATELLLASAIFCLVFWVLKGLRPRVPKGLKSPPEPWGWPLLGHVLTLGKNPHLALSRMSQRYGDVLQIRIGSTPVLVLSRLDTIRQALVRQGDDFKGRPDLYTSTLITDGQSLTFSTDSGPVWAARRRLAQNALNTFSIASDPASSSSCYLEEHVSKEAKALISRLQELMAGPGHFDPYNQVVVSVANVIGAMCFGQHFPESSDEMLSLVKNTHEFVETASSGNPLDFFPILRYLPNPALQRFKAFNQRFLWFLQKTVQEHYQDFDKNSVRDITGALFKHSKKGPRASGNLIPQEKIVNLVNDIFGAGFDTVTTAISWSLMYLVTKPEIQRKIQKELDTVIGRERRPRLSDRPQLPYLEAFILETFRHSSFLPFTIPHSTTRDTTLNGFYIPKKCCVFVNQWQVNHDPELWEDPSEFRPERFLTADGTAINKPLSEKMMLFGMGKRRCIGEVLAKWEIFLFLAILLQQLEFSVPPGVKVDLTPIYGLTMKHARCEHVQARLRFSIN
Chain of CYP2C19 (P33261 whole entry): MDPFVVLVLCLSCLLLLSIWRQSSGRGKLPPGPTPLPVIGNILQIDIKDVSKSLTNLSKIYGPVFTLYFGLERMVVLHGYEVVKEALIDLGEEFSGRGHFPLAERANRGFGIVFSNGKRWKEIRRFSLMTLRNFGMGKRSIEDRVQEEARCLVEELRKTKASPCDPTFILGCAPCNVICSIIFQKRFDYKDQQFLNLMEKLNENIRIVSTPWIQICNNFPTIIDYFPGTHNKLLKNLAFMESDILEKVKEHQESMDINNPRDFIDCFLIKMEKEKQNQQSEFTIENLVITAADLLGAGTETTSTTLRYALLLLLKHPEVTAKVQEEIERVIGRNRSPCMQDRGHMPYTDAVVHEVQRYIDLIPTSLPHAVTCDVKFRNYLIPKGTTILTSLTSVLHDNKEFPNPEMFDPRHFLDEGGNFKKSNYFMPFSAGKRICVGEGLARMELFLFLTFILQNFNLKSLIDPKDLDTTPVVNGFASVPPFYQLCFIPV
Chain of CYP2C9 (P11712 whole entry): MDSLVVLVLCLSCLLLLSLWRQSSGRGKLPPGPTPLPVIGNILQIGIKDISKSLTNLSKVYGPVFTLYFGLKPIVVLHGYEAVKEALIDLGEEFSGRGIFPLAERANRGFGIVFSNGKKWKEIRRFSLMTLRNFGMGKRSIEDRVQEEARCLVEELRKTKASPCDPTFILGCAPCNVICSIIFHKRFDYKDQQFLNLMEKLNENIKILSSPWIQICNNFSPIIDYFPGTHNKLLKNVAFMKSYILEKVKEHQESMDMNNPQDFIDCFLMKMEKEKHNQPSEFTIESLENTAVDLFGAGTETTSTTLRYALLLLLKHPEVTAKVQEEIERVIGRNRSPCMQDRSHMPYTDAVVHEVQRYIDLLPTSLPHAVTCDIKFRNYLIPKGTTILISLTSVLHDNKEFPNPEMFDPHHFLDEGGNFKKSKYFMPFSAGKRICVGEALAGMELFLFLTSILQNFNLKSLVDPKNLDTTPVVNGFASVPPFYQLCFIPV

Row | SMILES | inhibition at 1 µM ([1]; inhibitor 1 μM) | inhibition at 0.1 µM ([1]; inhibitor 100 nM) | RBA ERα [%] [3, 16] | RBA ERβ [%] [4, 16] | T1/2z [5] | tz [5] | AUC(0-t) [5] | Tmax [5] | AUC(0-inf) [5] | inhibition at 0.1 µM ([2]; inhibitor 100 nM) | inhibition at 1 µM ([2]; inhibitor 1 μM) | also measured
1 | Oc1cccc(-c2ccc3c(-c4cccc(O)c4)c(O)ccc3c2)c1 [Compound 57, 1,6-Bis(3-hydroxyphenyl)naphthalene-2-ol] | 92.6% | 82.9% | 0.0013% | 0.020% | 0.9 h | 10.0 h | 10700 ng·h/mL | 6 h | 10700 ng·h/mL | – | – | inhibition at 0.1 µM [2]: < 10%; inhibition at 1 µM [2]: 40.1%
2 | CS(=O)(=O)Nc1cccc(-c2c(O)ccc3cc(-c4cccc(O)c4)ccc23)c1 [Compound 64, N-(3-(2-Hydroxy-6-(3-hydroxyphenyl)naphthalene-1-yl)phenyl)methanesulfonamide] | – | – | – | – | 1.1 h | 10.0 h | 1330 ng·h/mL | 2 h | 1330 ng·h/mL | 31.1% | 71.3% | inhibition at 1 µM [1]: 90.8%; inhibition at 0.1 µM [1]: 88.1%; RBA ERα [%] [3]: 0.012%; RBA ERβ [%] [4]: 0.007%
3 | N#Cc1cc(O)cc2ccc(-c3cccc(O)c3)cc12 [Compound 54, 3-Hydroxy-7-(3-hydroxyphenyl)-1-naphthonitrile] | 94% | 83% | – | – | – | – | – | – | – | – | – | Papp at 180 min, 50 μM [6]: 4.4 ×10⁻⁶ cm/s; mass balance [% ± SD] [7]: 30.5 ± 3.1%; Permeability [7]: moderate; final basolateral concentration [μM ± SD] [7]: 3.7 ± 0.3 µM; IC50 [8]: 2.05 ± 0.18 µM; IC50 [9]: 259 ± 10 nM; IC50 [10]: 224 ± 2 nM; IC50 [11]: 1210 ± 190 nM
4 | Oc1cccc(-c2ccc3c(-c4ccncc4)c(O)ccc3c2)c1 [Compound 60, 6-(3-Hydroxyphenyl)-1-(pyridin-4-yl)naphthalene-2-ol] | – | – | 0.0068% | 0.003% | – | – | – | – | – | 12.2% | 48.5% | inhibition at 1 µM [1]: 85.9%; inhibition at 0.1 µM [1]: 74.4%
5 | O=S(=O)(Nc1nccs1)c1cccc(-c2c(O)ccc3cc(-c4cccc(O)c4)ccc23)c1 [Compound 69, 3-(2-Hydroxy-6-(3-hydroxyphenyl)naphthalene-1-yl)-N-(thiazol-2-yl)-benzenesulfonamide] | 96.3% | 87% | 0.015% | 0.010% | – | – | – | – | – | 24% | 71% | –
6 | O=C(Nc1ccccc1)c1c(O)ccc2cc(-c3cccc(O)c3)ccc12 [Compound 42, 2-Hydroxy-6-(3-hydroxyphenyl)-N-phenyl-1-naphthamide] | 80.2% | 40% | – | – | – | – | – | – | – | < 10% | 16.3% | Papp at 180 min, 50 μM [6]: 1.5 ×10⁻⁶ cm/s; mass balance [% ± SD] [7]: 7.6 ± 0.5%; Permeability [7]: moderate; final basolateral concentration [μM ± SD] [7]: 1.1 ± 0.1 µM
7 | Oc1cccc(-c2ccc3cc(O)ccc3c2)c1 [Compound 19, 6-(3-Hydroxyphenyl)-2-naphthol] | 94% | 91.4% | 0.23% | 0.80% | 4.4 h | 24.0 h | 29700 ng·h/mL | 6 h | 30700 ng·h/mL | 12.4% | 16.6% | Papp at 180 min, 50 μM [6]: 8.9 ×10⁻⁶ cm/s; mass balance [% ± SD] [7]: 37.5 ± 3.0%; Permeability [7]: moderate; final basolateral concentration [μM ± SD] [7]: 6.5 ± 0.2 µM; IC50 [12]: 32.6 ± 0.72 µM; Slope (−k) [13]: −0.055; half-life ([13]; rat, microsomes, pH 7.4): 12.6 min; microsomal CLint ([13]; rat, microsomes, pH 7.4): 367 µL/min/mg
8 | Oc1cccc(-c2ccc3c(-c4ccccc4)c(O)ccc3c2)c1 [Compound 56, 6-(3-Hydroxyphenyl)-1-phenyl-2-naphthol] | 89.4% | 76.2% | 0.055% | 0.044% | 5.9 h | 24.0 h | 11700 ng·h/mL | 4 h | 12700 ng·h/mL | 22.1% | 77.2% | –
9 | COc1ccc(-c2c(O)ccc3cc(-c4cccc(O)c4)ccc23)cn1 [Compound 62, 6-(3-Hydroxyphenyl)-1-(6-methoxypyridin-3-yl)naphthalene-2-ol] | 89.2% | 85.9% | – | – | – | – | – | – | – | – | – | inhibition at 0.1 µM [2]: 24.3%; inhibition at 1 µM [2]: 67.2%; IC50 [12]: 40 ± 0.08 µM; IC50 [8]: 1.07 ± 0.05 µM; IC50 [14]: 10.4 ± 0.14 µM; Slope (−k) [13]: −0.014; microsomal CLint ([13]; rat, liver microsomes, pH 7.4): 92.8 µL/min/mg
10 | Oc1cccc(-c2ccc3c(Br)c(O)ccc3c2)c1 [Compound 52, 1-Bromo-6-(3-hydroxyphenyl)naphthalene-2-ol] | 88.4% | 82.9% | 0.081% | 0.10% | – | – | – | – | – | 19% | 69% | –
11 | Oc1cccc(-c2ccc3c(-c4ccoc4)c(O)ccc3c2)c1 [Compound 58, 1-(Furan-3-yl)-6-(3-hydroxyphenyl)naphthalene-2-ol] | – | – | – | – | – | – | – | – | – | 60.6% | 92.3% | inhibition at 1 µM [1]: 89.1%; inhibition at 0.1 µM [1]: 83%; RBA ERα [%] [3]: 0.022%; RBA ERβ [%] [4]: 0.024%
12 | Nc1cccc(-c2c(O)ccc3cc(-c4cccc(O)c4)ccc23)c1 [Compound 68, 1-(3-Aminophenyl)-6-(3-hydroxyphenyl)naphthalene-2-ol] | 87.3% | 74.1% | – | – | 2.4 h | 24.0 h | 539 ng·h/mL | 2 h | 540 ng·h/mL | < 10% | 39.1% | Papp at 180 min, 50 μM [6]: 16.4 ×10⁻⁶ cm/s; mass balance [% ± SD] [7]: 52.7 ± 3.6%; Permeability [7]: high; final basolateral concentration [μM ± SD] [7]: 13.9 ± 0.8 µM; AUC(0-t) ([15]; rat, plasma): 337 ng·h/mL; Tmax ([15]; rat, plasma): 2 h; AUC(0-inf) ([15]; rat, plasma, extrapolated to ∞): 337 ng·h/mL; t1/2z [15]: 1.59 h; tz [15]: 8.0 h
13 | CC(=O)Nc1cccc(-c2c(O)ccc3cc(-c4cccc(O)c4)ccc23)c1 [Compound 66, N-(3-(2-Hydroxy-6-(3-hydroxyphenyl)naphthalene-1-yl)phenyl)acetamide] | 81.5% | 35.1% | – | – | – | – | – | – | – | 24.1% | 63.6% | –
14 | O=C(O)c1cccc(-c2c(O)ccc3cc(-c4cccc(O)c4)ccc23)c1 [Compound 63, 3-(2-Hydroxy-6-(3-hydroxyphenyl)naphthalene-1-yl)benzoic acid] | 80% | 44.7% | – | – | – | – | – | – | – | < 10% | 34.2% | –

From patent US8546392B2, “17Beta-hydroxysteroid dehydrogenase type 1 inhibitors for the treatment of hormone-related diseases” (Universitaet des Saarlandes, priority 2008, dated 2013)
